Measured values reported in patent US20210186905A1, “ENHANCING T-CELL FUNCTION AND TREATING A T-CELL DYSFUNCTIONAL DISORDER WITH A COMBINATION OF AN LSD INHIBITOR AND A PD-1 BINDING ANTAGONIST” (EpiAxis Therapeutic Pty Ltd, priority 2017, published 2021).
Counter-ions that a name gives are not always drawn.

Tests used:
IFN-γ and TNF-α = assay: Immunofluorescence of IFN-γ and TNF-α in CD8+ T-cells; assay type: in vivo, mouse; settings: IF % change
Description: FIG. 5 is a graphical representation showing that dual epigenetic-immunotherapy re-educates and re-programs the T-cell repertoire. A. Cells stimulated with PMA/ionomycin for 4 hours in the presence of Brefeldin A. Cells were surfaced stained with CD45, CD3, CD4, CD8, CD44, CD62L (for naïve, effector and central memory), CD25 and FoxP3 (for Tregs) and analyzed via Flow cytometry. A Mann-Whitney non-parametric t-test was used to compare control vs other groups (*p<0.05, n=2-5). […] Representative images for each dataset are shown. TNFI values for EOMES, TBET and Ki67 measured using Image) to select the nucleus minus background. […] Cells stimulated with PMA/ionomycin for 4 hours in the presence of Brefeldin A. Cell were surfaced stained with CD45, CD3, CD4, CD8 and intracellular staining of IFN-γ, IL-2 and TNF-α in the presence of Brefeldin A and analyzed via flow cytometry. […] TNFI values for TNFα and IFNγ measured using ImageJ to select the nucleus minus background. […]
A total of 2×10^5 cells were injected per mouse into mammary gland in 50 μL of phosphate buffered saline (PBS). […] Tumors were measured using calipers and the tumor volumes (mm3) were calculated using the formula (length×width2)/2. ? arvested cells from primary tumors where then cytospun ? -treated with poly-1-lysine and fixed then stored in PBS for IFA Microscopy Analysis. […]

CD4+/CD8+ T-cells = assay: Flow cytometry of T-cell populations (naive, effector and central memory) in 4T1 mice; assay type: in vivo, mouse
Description: FIG. 5 is a graphical representation showing that dual epigenetic-immunotherapy re-educates and re-programs the T-cell repertoire. A. Cells stimulated with PMA/ionomycin for 4 hours in the presence of Brefeldin A. Cells were surfaced stained with CD45, CD3, CD4, CD8, CD44, CD62L (for naïve, effector and central memory), CD25 and FoxP3 (for Tregs) and analyzed via Flow cytometry. A Mann-Whitney non-parametric t-test was used to compare control vs other groups (*p<0.05, n=2-5). […] Representative images for each dataset are shown. TNFI values for EOMES, TBET and Ki67 measured using Image) to select the nucleus minus background. Graphs represent the % change of expression relative to control group for CD8^+ T-cells. (n>20 individual cells, Group A=Control, Group C: PD1 (10 mg/kg), Group D: Phenelzine (40 mg/kg), Group F: PD1+Phenelzine). C. Cells stimulated with PMA/ionomycin for 4 hours in the presence of Brefeldin A. Cell were surfaced stained with CD45, CD3, CD4, CD8 and intracellular staining of IFN-γ, IL-2 and TNF-α in the presence of Brefeldin A and analyzed via flow cytometry. A Mann-Whitney non-parametric t-test was used to compare control vs other groups (*p<0.05, **p<0.008; n=2-5). […] Representative images for each dataset are shown. TNFI values for TNFα and IFNγ measured using ImageJ to select the nucleus minus background. […]

`NNCCc1ccccc1` (racemic) [phenelzine sulfate, (±)-2-phenylethylhydrazine] was tested, and the IFN-γ expression (IFN-γ and TNF-α) was “no significant effect” and the “CD8+ central memory and effector memory populations” value (CD4+/CD8+ T-cells) was “enhance”.
